# In PMC6271088, “Quantification of the Resveratrol Analogs trans-2,3-Dimethoxy-stilbene and trans-3,4-Dimethoxystilbene in Rat Plasma: Application to Pre-Clinical Pharmacokinetic Studies” (Molecules, 2014):
# Entries after “also recorded” stand apart in the source; their conditions may differ. Where two headings read alike, the source gives them in different places.
# Key:
# [1] = cited from earlier work
# [2] = Stock solution stability (DMSO stock, room temperature); assay type: physicochemical; details: Stock solution stored at 24 °C for 8 days, read-out: Stability (% Remained)
# Procedure: (§1) Stock solutions of analytes were prepared in DMSO to a final concentration of 1 mg/mL, stored at room temperature (24 °C) and protected from light. The internal standard (IS) (trans-stilbene) was prepared by dissolving in acetonitrile and diluted to 100 ng/mL (working solution). Equal volumes of rat liver microsome (RLM) and trans-stilbene–acetonitrile working solution were mixed to quench the reaction. After vigorous vortexing for 20 s, the samples were centrifuged at 6,000 g for 10 min at 4 °C. Rat plasma samples were processed by adding trans-stilbene–acetonitrile working solution to rat plasma in 3:1 ratio. After vigorous vortexing for 20 s, the samples were centrifuged at 10,000 g for 4 min at 4 °C. Finally, the supernatant was transferred into a glass insert that was pre-installed in a 1.5 mL auto-sampler vial. During each assay, 75 µL supernatant was injected into the HPLC-UV system.
# Stabilities of 2,3-DMS in stock solution were evaluated after storage at room temperature for eight days. Stability of 2,3-DMS in rat plasma under different conditions was profiled with QC samples. Freeze-thaw stability was assessed after three freeze (−80 °C)–thaw (24 °C) cycles. Short-term room temperature stability (24 °C) of 2,3-DMS in rat plasma was examined after storing such samples at room temperature for 6 h. […] The stability of 3,4-DMS was assessed in the same way. […]
# [3] = Stability in rat plasma (QC samples: short-term, freeze-thaw, long-term); assay type: in vitro ADME; details: read-out: Stability (% Remained); for remaining at 25 ng/mL / remaining at 400 ng/mL / remaining at 1400 ng/mL: Plasma samples after three freeze-thaw cycles; for remaining at 25 ng/mL / remaining at 6 h, 25 ng/mL / remaining at 240 h, 25 ng/mL: spiked 25 ng/mL; for remaining at 400 ng/mL / remaining at 6 h, 400 ng/mL / remaining at 240 h, 400 ng/mL: spiked 400 ng/mL; for remaining at 1400 ng/mL / remaining at 6 h, 1400 ng/mL / remaining at 240 h, 1400 ng/mL: spiked 1400 ng/mL; for remaining at 6 h, 25 ng/mL / remaining at 6 h, 400 ng/mL / remaining at 6 h, 1400 ng/mL: Plasma samples stored at 4 °C for 6 h; for remaining at 240 h, 25 ng/mL / remaining at 240 h, 400 ng/mL / remaining at 240 h, 1400 ng/mL: Plasma samples stored at −80 °C for 10 days
# Procedure: Stabilities of 2,3-DMS in stock solution were evaluated after storage at room temperature for eight days. Stability of 2,3-DMS in rat plasma under different conditions was profiled with QC samples. Freeze-thaw stability was assessed after three freeze (−80 °C)–thaw (24 °C) cycles. […] Long-term storage stability of 2,3-DMS in rat plasma was studied after being stored at −80 °C for 10 days. Post-preparative stability study was conducted by re-analyzing samples (kept in auto-sampler vial at room temperature) 24 h later. The stability of 3,4-DMS was assessed in the same way. Samples were considered stable if analytical responses were within 100% ± 15% of corresponding freshly prepared samples.
# [4] = Intravenous pharmacokinetics in Sprague-Dawley rats; assay type: in vivo; details: intravenous 4 mg/kg; for plasma level relative to LLOQ (10 ng/mL) over sampling period: sampling up to 660 min; for B / α / β / A: two-compartment model; for A: HP-β-CD formulation; for AUC(0-t) / clearance / Vd / half-life: male, Sprague-Dawley, rat, plasma; for clearance: read-out: Cl (clearance); for Vd: read-out: Vc (volume of distribution of the central compartment); for half-life: read-out: t1/2 λZ (terminal elimination half-life)
# Procedure: (§2) This animal model has been used to investigate the pharmacokinetics of various stilbenes. The animal handling protocol was reviewed and approved by the Institutional Animal Care and Use Committee of the National University of Singapore (NUS). All animal experiments were carried out in Comparative Medicine Centre of NUS. Sprague-Dawley rats (male, 346 ± 18 g, bred by Centre for Animal Resources, NUS) were maintained on a 12 h light/dark cycle with free access to food and water. Polyethylene tube (inner diameter (I.D.) 0.58 mm, outside diameter (O.D.) 0.965 mm, Becton Dickinson, Sparks, MD, USA) was implanted into the right jugular vein under anaesthesia on the day before pharmacokinetic study. This catheter was used for intravenous drug administration as well as for blood sampling.
# (§3) Twenty-two rats were divided into four groups. Group 1 and Group 2 (n = 5) received single intravenous bolus dose (4 mg/kg) of 2,3-DMS and 3,4-DMS respectively. Serial blood samples were collected before dosing (0 min) and at 5, 15, 30, 60, 90, 120, 180, 300, 480 and 660 min post-dosing. Group 3 and Group 4 (n = 6) received single oral dose (10 mg/kg) of 2,3-DMS and 3,4-DMS respectively through oral gavage and serial blood samples were collected before dosing (0 min) and at 15, 30, 45, 60, 90, 120, 180, 300, 480 and 660 min post-dosing. 0.3 mL heparin-saline (10 I.U./mL) was used to flush the cannular after each intravenous injection or blood sampling to maintain its patency. Blood samples were centrifuged at 3500 g at 4 °C for 5 min and plasma was collected and stored at −80 °C.
# (§4) Pharmacokinetic parameters were derived using WinNonlin standard version 1.0 (Scientific Consulting Inc., Apex, NC, USA). […] Plasma exposure (area under the plasma concentration-time curve from 0 min to last measurable point (AUC0→last)) in rats receiving intravenous administration was calculated by the linear/log trapezoidal rule while the linear trapezoidal rule was used to calculate the plasma exposure in rats receiving oral administration. Clearance (Cl0→last), mean transit time (MTT0→last) and terminal half-life (t1/2 λZ) were calculated using non-compartmental analysis. Maximal plasma concentration (Cmax) and the time required to reach (tmax) were from direct experimental observations. Absolute oral bioavailability (F) of 2,3-DMS was calculated through reported method.
# [5] = Oral pharmacokinetics in Sprague-Dawley rats; assay type: in vivo; details: for post-dosing plasma samples above LLOQ (10 ng/mL): six rats
# Procedure: as §2, §3, §4
# [6] = Post-preparative stability (processed samples in auto-sampler vial); assay type: physicochemical; details: rat, Post-preparative samples stored at 24 °C for 24 h, read-out: Stability (% Remained); for remaining at 24 h, 25 ng/mL: spiked 25 ng/mL; for remaining at 24 h, 400 ng/mL: spiked 400 ng/mL; for remaining at 24 h, 1400 ng/mL: spiked 1400 ng/mL
# Procedure: as §1
# Stabilities of 2,3-DMS in stock solution were evaluated after storage at room temperature for eight days. Stability of 2,3-DMS in rat plasma under different conditions was profiled with QC samples. Freeze-thaw stability was assessed after three freeze (−80 °C)–thaw (24 °C) cycles. Short-term room temperature stability (24 °C) of 2,3-DMS in rat plasma was examined after storing such samples at room temperature for 6 h. Long-term storage stability of 2,3-DMS in rat plasma was studied after being stored at −80 °C for 10 days. Post-preparative stability study was conducted by re-analyzing samples (kept in auto-sampler vial at room temperature) 24 h later. The stability of 3,4-DMS was assessed in the same way. Samples were considered stable if analytical responses were within 100% ± 15% of corresponding freshly prepared samples.
# [7] = Rat liver microsome metabolic stability; assay type: in vitro ADME, Sprague-Dawley rat; details: for half-life at 0.6 µg/mL: Sprague-Dawley, pH 7.4, in the presence of NADPH, 37 °C; for half-life at 0.6 µg/mL / compound remained after microsomal incubation: rat liver microsomes; for stability in acetonitrile-inactivated microsomes: acetonitrile-inactivated microsomes (chemical stability); for compound remained after microsomal incubation: in the absence of NADPH, 45 min incubation
# Procedure: RLM metabolic stabilities of 2,3-DMS and 3,4-DMS were examined by mixing Sprague-Dawley RLM with potassium phosphate buffer (pH = 7.4), NADPH regenerating solution B and either compounds to achieve a final compound concentration of 0.6 µg/mL. Negative control was set up, using Milli-Q water in place of NADPH. Chemical stability of compound in inactivated RLM was checked using similar system with acetonitrile/Milli-Q mixture instead of phosphate buffe.
# Pre-incubation was done in 37 °C water bath for 5 min before NADPH A was added to initiate reaction. Aliquots were drawn at 0, 5, 15, 25, 35 and 45 min and quenched using ice cold trans-stilbene–acetonitrile working solution. Chemical stability was monitored at 0, 25 and 45 min. The samples were further processed for HPLC analysis as described above.
# To assess extent of metabolism, percentage of compound remaining at each time point with respect to 0 min was calculated. Mean and standard deviation was obtained from column statistics using GraphPad Prism 5, version 5.03 for Windows, via raw means from the six replicates of each setup. Elimination half-lives were obtained from non-linear regression via one-phase exponential decay, where x was time in minutes, y was percentage remaining with respect to 0 min and a weighting factor of 1/y^2 was used.
SMILES,oral bioavailability (in words) [1],"remaining at 192 h, 1 mg/mL [2] [%]",remaining at 25 ng/mL [3] [%],remaining at 400 ng/mL [3] [%],remaining at 1400 ng/mL [3] [%],"remaining at 6 h, 25 ng/mL [3] [%]","remaining at 6 h, 400 ng/mL [3] [%]","remaining at 6 h, 1400 ng/mL [3] [%]","remaining at 240 h, 25 ng/mL [3] [%]","remaining at 240 h, 400 ng/mL [3] [%]","remaining at 240 h, 1400 ng/mL [3] [%]",plasma level relative to LLOQ (10 ng/mL) over sampling period [4],B [4] [ng/mL],α [4],β [4],A [4] [ng/mL],AUC(0-t) [4] [ng·h/mL],clearance [4] [mL/min/kg],Vd [4] [L/kg],half-life [4] [h],other results
"COc1cc(/C=C/c2ccc(OC)c(OC)c2)cc(OC)c1 [trans-3,5,3',4'-tetramethoxystilbene]",excellent or quite good oral bioavailability,,,,,,,,,,,,,,,,,,,,
"COc1cc(C=Cc2cc(OC)c(OC)c(OC)c2)cc(OC)c1 [3,4,5,3',5'-pentamethoxystilbene]",excellent or quite good oral bioavailability,,,,,,,,,,,,,,,,,,,,
"COc1cccc(/C=C/c2ccccc2)c1OC [2,3-DMS, trans-2,3-Dimethoxystilbene]",,98.1 ± 2.1,102 ± 4.5,93.2 ± 1.2,91.8 ± 2.6,94.9 ± 4.4,95.5 ± 1.1,95.4 ± 0.6,107 ± 6.6,96.6 ± 4.7,93.5 ± 4.1,remained quantifiable throughout our sampling period,135.6 ± 40.6,5.02 ± 1.76 10^−2 × min^−1,3.08 ± 0.73 10^−3 × min^−1,1384.1 ± 251.4,1160,52 ± 7,2.71 ± 0.51,4.81 ± 1.55,"MTT0→last (mean transit time) [4]: 131.0 ± 4.5 min; Cmax ([5]; male, Sprague-Dawley, rat, plasma, oral 10 mg/kg): 37.5 ± 23.7 ng/mL; bioavailability ([5]; male, Sprague-Dawley, rat, plasma, oral 10 mg/kg vs intravenous 4 mg/kg, read-out: F (oral bioavailability)): 2.22 ± 2.13%; AUC(0-t) ([5]; male, Sprague-Dawley, rat, plasma, oral 10 mg/kg, HP-β-CD formulation): 64.3 ng·h/mL; MTT0→last (mean transit time) ([5]; oral 10 mg/kg): 83.2 ± 67.4 min; post-dosing plasma samples above LLOQ (10 ng/mL) ([5]; oral 10 mg/kg): 32 out of 60; remaining at 24 h, 25 ng/mL [6]: 97.2 ± 2.5%; remaining at 24 h, 400 ng/mL [6]: 100.1 ± 0.5%; remaining at 24 h, 1400 ng/mL [6]: 100.6 ± 0.7%; half-life at 0.6 µg/mL [7]: 0.237 h; stability in acetonitrile-inactivated microsomes [7]: good stability; compound remained after microsomal incubation [7]: 46.6% ± 4.6%"
"Oc1cc(O)cc(/C=C/c2ccccc2)c1 [pinosylvine, trans-3,5-dihydroxystilbene]",much poorer than resveratrol,,,,,,,,,,,,,,,,,,,,
"COc1ccc(/C=C/c2ccccc2)cc1OC [3,4-DMS, trans-3,4-dimethoxystilbene]",,96.7 ± 2.7,106 ± 5.2,93.4 ± 0.7,92.4 ± 2.4,104 ± 6.6,94.7 ± 0.7,96.2 ± 0.4,91 ± 13.8,93.6 ± 4.6,93 ± 3.7,became unmeasurable at 11 h,55.9 ± 26.1,5.25 ± 1.45 10^−2 × min^−1,3.85 ± 2.45 10^−3 × min^−1,702.7 ± 148.5,427,143 ± 40.5,5.58 ± 1.73,3.22 ± 2.05,"clearance relative to rat hepatic blood flow [4]: three-fold; MTT0→last (mean transit time) ([4]; 4 mg/kg): 61.4 ± 27.1 min; post-dosing plasma samples above LLOQ (10 ng/mL) ([5]; oral 10 mg/kg): three post-dosing samples collected from one out of six rats; oral bioavailability (in words) ([5]; oral 10 mg/kg, 10 mg/kg): even poorer than 2,3-DMS; also recorded: almost nil; remaining at 24 h, 25 ng/mL [6]: 98.1 ± 5.7%; remaining at 24 h, 400 ng/mL [6]: 98.1 ± 1.8%; remaining at 24 h, 1400 ng/mL [6]: 100.1 ± 0.6%; half-life at 0.6 µg/mL [7]: 0.277 h; stability in acetonitrile-inactivated microsomes [7]: good stability; compound remained after microsomal incubation [7]: 78.1% ± 5.3%"
"COc1ccc(/C=C/c2cc(OC)cc(OC)c2)cc1 [3,5,4'-trimethoxysilbene, trans-3,5,4'-trimethoxystilbene]",excellent or quite good oral bioavailability,,,,,,,,,,,,,,,,,,,,
